Tests used:
[1] = system: cultured chick heart cells; assay: Influence of TPB and CCCP on (membrane potential-independent) accumulation of Tc-MIBI (FIG. 4); assay type: cell-based; details: CCCP 5 uM; presence and absence of TPB; P<0.001
Experimental: FIG. 4. […] Preparations were incubated for the times indicated in 5.4 mM Ko control loading buffer containing tracer Tc-MIBI and TPB together (Δ) or in loading buffer containing Tc-MIBI alone (.quadrature.). For the latter incubation, TPB was added to the loading buffer at the arrow and cell content of Tc-MIBI subsequently determined (o). Under each condition, CCCP was added to the loading buffers as indicated by the arrows and cell content of Tc-MIBI determined ( , , ·). Each point is the mean ±SEM of 3 determinations.
(§1) Monolayers of spontaneously contractile chick ventricular myocardial cells were obtained from disaggregated 10-day old chick embryo hearts by a slight modification of previously published methods (Horres, C. R., et al., In Pinson, A. (ed.), The Heart Cell in Culture, Boca Raton, CRC Press, pp. 77-108 (1987)). Hearts were trimmed of connective tissue and atria, finely minced and serially exposed to 0.024% (w/v) trypsin in Ca^2+ - and Mg^2+ - free Earle's salt solution for 7 minutes at 37° C. Gentle trituration and agitation on an orbital shaker bath aided disaggregation. Cells released from the first exposure were discarded and cells aspirated from the next four exposures were then added to an equal volume of trypsin deactivating solution consisting of ice-cold culture medium. Cells were centrifuged at 400 g for 10 minutes, resuspended and combined in culture medium, counted with a hemocytometer and diluted to yield a suspension of 5×10^5 cells/ml. 12 ml of suspension were incubated in 100 mm plastic culture dishes containing 7 coverslips (25 mm diameter) placed on the bottom of each dish to serve as substrate for cell growth. Cells were maintained in a humidified atmosphere of 5% CO2 /95% air for 3-4 days yielding a confluent layer of spontaneously contractile myocytes on each coverslip.
Radioactive uptake methods have been described in detail (Piwnica-Worms, D., et al, Circ. (in press). Briefly, coverslips with confluent cells were removed from culture media and pre-equilibrated for 40-60 seconds in MEBSS buffer. Uptake and retention experiments were initiated by immersion of coverslips in 60 mm glass Pyrex dishes containing loading solution consisting of buffer with 0.1-0.6 nM [^99m Tc-MIBI] (0.01-0.4 Ci/nmole; 25-100 uCi/ml). Preparations were removed at various times and rinsed three times in 25 ml volumes of ice-cold (2° C.) isotope-free buffer for 8 seconds each to clear extracellular spaces. Preparations and aliquots of the loading buffer and stock solutions were counted in a well-type sodium iodide gamma counter after which cell protein on each coverslip was extracted in 1% sodium dodecylsulfate with 10 mM sodium borate and assayed by the method of Lowry (Lowry, O. H., et al., J. Biol. Chem. 193:265-275 (1951)). Tc-MIBI binding to glass coverslips without cells was used as an estimate of non-specific adhesion to the substrate ([…] obtained with cellular preparations); this value was subtracted from total uptake determinations to derive the cell-associated counts. Use of generator equilibrium equations (Lamson, M. L., et al., i J. Nucl. Med. 16:639-641 (1975)) allowed calculation of absolute moles of Tc-MIBI in solutions and preparations. Results were therefore expressed as fmol cellular Tc-MIBI/mg protein per nM extracellular Tc-MIBI concentration. […]

[2] = system: cultured chick myocardial cells; details: cited from earlier work
[3] = system: cultured chick heart cells; assay: Effect of MSA on Tc-MIBI net accumulation (FIG. 3); assay type: cell-based; details: MSA 5.4 mM
Experimental: FIG. 3. Effect of MSA on Tc-MIBI net accumulation. Preparations were incubated for the times indicated in Tc-MIBI loading buffer containing 5.4 mM KCl (.quadrature., .smallcircle.) or 5.4 mM K-MSA ( , ·; prepared by equimolar substitution of K-MSA KCl) in the absence (.quadrature., ) or presence (.smallcircle., ·) of TPB (10^-5 M). Each point represents the mean ±SEM of 3 determinations.
Control buffer was a modified Earle's balanced salt solution (MEBSS) with the following composition (mN) Na^30, 145; K^+, 5.4; Ca^2, 1.2; Mg^2+, 0.8; Cl, 152; H2 PO4, 0.8; SO4^2-, 0.8; dextrose, 5.6; HEPES, 4.0; and bovine calf serum, 1% (v/v); […]; 37° C. K-methanesulfonate was made by titration of methanesulfonic acid with KOH (Piwnica-Worms, D., et al., J. Gen. Physiol. 81:731-748 (1983)) and replaced […] in some solutions by equimolar substitution where indicated. Natetraphenylborate, CCCP, bumetanide and valinomycin were dissolved into DMSO prior to addition to buffer. DMSO alone has no significant affect on contractile activity, action potential configuration (Lieberman, M., et al., Dev. Biol. 31:380-403 (1973)) or Tc-MIBI uptake kinetics (Piwnica-Worms, D., et al., Circ. (in press)).
(§2) Monolayers of spontaneously contractile chick ventricular myocardial cells were obtained from disaggregated 10-day old chick embryo hearts by a slight modification of previously published methods (Horres, C. R., et al., In Pinson, A. (ed.), The Heart Cell in Culture, Boca Raton, CRC Press, pp. 77-108 (1987)). […] Cells were centrifuged at 400 g for 10 minutes, resuspended and combined in culture medium, counted with a hemocytometer and diluted to yield a suspension of 5×10^5 cells/ml. […]
Radioactive uptake methods have been described in detail (Piwnica-Worms, D., et al, Circ. (in press). Briefly, coverslips with confluent cells were removed from culture media and pre-equilibrated for 40-60 seconds in MEBSS buffer. Uptake and retention experiments were initiated by immersion of coverslips in 60 mm glass Pyrex dishes containing loading solution consisting of buffer with 0.1-0.6 nM [^99m Tc-MIBI] (0.01-0.4 Ci/nmole; 25-100 uCi/ml). Preparations were removed at various times and rinsed three times in 25 ml volumes of ice-cold (2° C.) isotope-free buffer for 8 seconds each to clear extracellular spaces. Preparations and aliquots of the loading buffer and stock solutions were counted in a well-type sodium iodide gamma counter after which cell protein on each coverslip was extracted in 1% sodium dodecylsulfate with 10 mM sodium borate and assayed by the method of Lowry (Lowry, O. H., et al., J. Biol. Chem. 193:265-275 (1951)). […]

cells and mitochondria = details: cited from earlier work; for toxic effects on mitochondrial function: typical loading activities
[4] = system: cultured chick heart cells; assay: Effect of phloretin, alone or with TPB, on net uptake of Tc-MIBI in cultured chick heart cells (FIG. 7, 8); assay type: cell-based
Experimental: FIG. 7. Effect of phloretin on net accumulation of Tc-M1B1 in cultured heart cells. Preparations were incubated for the times indicated in Tc-MIBI loading buffer in the absence (.quadrature.) or presence of phloretin ( , 10^-7 M; , 10^-4 M). Each point represents the mean ±SEM of 3-4 determinations.
FIG. 8. Effect of phloretin and tetraphenylborate together on net uptake of Tc-MB1 in cultured chick heart cells. Preparations were incubated in MEBSS containing Tc-MIBI for 30 minutes in the absence (control) or presence of tetraphenylborate and phloretin each alone or in combination as indicated on the abscissa. Each group of four conditions (two groups in A and one group in B) represent separate cultures. Error bars indicate ±SEM for three or more determinations.
as §2
Radioactive uptake methods have been described in detail (Piwnica-Worms, D., et al, Circ. (in press). Briefly, coverslips with confluent cells were removed from culture media and pre-equilibrated for 40-60 seconds in MEBSS buffer. Uptake and retention experiments were initiated by immersion of coverslips in 60 mm glass Pyrex dishes containing loading solution consisting of buffer with 0.1-0.6 nM [^99m Tc-MIBI] (0.01-0.4 Ci/nmole; 25-100 uCi/ml). Preparations were removed at various times and rinsed three times in 25 ml volumes of ice-cold (2° C.) isotope-free buffer for 8 seconds each to clear extracellular spaces. […] Results were therefore expressed as fmol cellular Tc-MIBI/mg protein per nM extracellular Tc-MIBI concentration. […]

[5] = system: cultured chick heart cells; assay: Effect of valinomycin on tetraphenylborate enhancement of Tc-MIBI accumulation in high Ko buffer (Table 1); assay type: cell-based; details: valinomycin 1 ug/ml; high K buffer
Experimental: as §1
Radioactive uptake methods have been described in detail (Piwnica-Worms, D., et al, Circ. (in press). Briefly, coverslips with confluent cells were removed from culture media and pre-equilibrated for 40-60 seconds in MEBSS buffer. Uptake and retention experiments were initiated by immersion of coverslips in 60 mm glass Pyrex dishes containing loading solution consisting of buffer with 0.1-0.6 nM [^99m Tc-MIBI] (0.01-0.4 Ci/nmole; 25-100 uCi/ml). Preparations were removed at various times and rinsed three times in 25 ml volumes of ice-cold (2° C.) isotope-free buffer for 8 seconds each to clear extracellular spaces. Preparations and aliquots of the loading buffer and stock solutions were counted in a well-type sodium iodide gamma counter after which cell protein on each coverslip was extracted in 1% sodium dodecylsulfate with 10 mM sodium borate and assayed by the method of Lowry (Lowry, O. H., et al., J. Biol. Chem. 193:265-275 (1951)). Tc-MIBI binding to glass coverslips without cells was used as an estimate of non-specific adhesion to the substrate ([…] obtained with cellular preparations); this value was subtracted from total uptake determinations to derive the cell-associated counts. Use of generator equilibrium equations (Lamson, M. L., et al., i J. Nucl. Med. 16:639-641 (1975)) allowed calculation of absolute moles of Tc-MIBI in solutions and preparations. Results were therefore expressed as fmol cellular Tc-MIBI/mg protein per nM extracellular Tc-MIBI concentration. Division of this value by the cell water space (6.9 ul/mg protein; Chiu, M. L., et al., J. Nucl. Med. (31:1646-1653(1990)) yields a nominal intracellular/extracellular Tc-MIBI accumulation ratio neglecting subcellular compartmentation of the agent.
To further explore the influence of TPB on any potential-independent accumulation of Tc-MIBI in myocytes, preparations were exposed to 130 mM K° 20 mM Clo buffer (Table 1). […] Equilibration of intracellular and extracellular spaces occurred in the presence of high K buffer plus valinomycin under all conditions (in/out ration ~1; P=NS) indicating the lack of any significant potential-independent membrane binding of Tc-MIBI.
Preparations were incubated in high Ko low Clo loading buffer +/- valinomycin (1 ug/ml) for 20 minutes in the presence of TPB (10^-5 M) or for 40 minutes in its absence to determine peak accumulation of Tc-MIBI under each condition. Values are the mean ±SEM. Tc-MIBI in/out ratios were obtained by dividing net uptake values by the cell water space of […] (Chiu, M. L., et al., J. Nucl. 31:1646-1653 (1990)). +p<0.01; * p<0.001 compared to net uptake in 130 mM Ko buffer.

N#CC(C#N)=NNc1cccc(Cl)c1 [CCCP, carbonyl cyanide-m-chlorphenylhydrazone, reference compound]
release of myocellular Tc-MIBI [1]: rapid and near complete release of myocellular Tc-MIBI
unidirectional influx and net cellular accumulation of Tc-MIBI ([2]; CCCP, mitochondrial depolarization): decreases the unidirectional influx and net cellular accumulation of TC-MIBI

CS(=O)(=O)O [MSA, methanesulfonate, reference compound]
uptake kinetics or equilibrium content of Tc-MIBI [3]: did not significantly alter uptake kinetics or equilibrium content of Tc-MIBI
TPB-induced enhancement of Tc-MIBI accumulation ([3]; TPB 10^-5 M): did not interfere with the TPB-induced enhancement of Tc-MIBI accumulation

c1ccc([P+](c2ccccc2)(c2ccccc2)c2ccccc2)cc1 [TPP^+, tetraphenylphosphonium]
toxic effects on mitochondrial function (cells and mitochondria): toxic effects on mitochondrial function

CO[C@@H]1C[C@@H](C[C@H]2CC[C@H](C)[C@H]([C@@H](C)C(=O)O)O2)O[C@]2(O[C@](C)([C@H]3CC[C@@](C)([C@@H]4O[C@@H]([C@H]5O[C@@](O)(CO)[C@H](C)C[C@@H]5C)C[C@@H]4C)O3)C[C@H]2C)[C@@H]1C [nigericin]
net cellular uptake of Tc-MIBI ([2]; nigericin, mitochondrial hyperpolarization): increases net cellular uptake of Tc-MIBI

CC[C@H]1/C=C/C=C/C[C@@H](C)[C@H](O)[C@@](C)(O)C(=O)[C@@H](C)[C@H](O)[C@@H](C)C(=O)[C@@H](C)[C@H](O)[C@@H](C)/C=C/C(=O)O[C@@H]2[C@H](C)[C@H](CC1)O[C@]1(CC[C@H](C)[C@H](C[C@@H](C)O)O1)[C@H]2C [oligomycin]
Tc-MIBI uptake or retention ([2]; oligomycin, mitochondrial hyperpolarization): increases Tc-MIBI uptake or retention

O=C(CCc1ccc(O)cc1)c1c(O)cc(O)cc1O [phloretin, 3-(4-hydroxyphenyl)-1-(2,4,6-trihydroxyphenyl)-1-propanone]
fold induction at 100 µM ([4]; Gallus gallus, 0.5 h, phloretin 10^-4 M, 30 minute uptake (FIG. 8), approximately, read-out: net retention of Tc-MIBI above control levels): 2.5 to 3.5
additive enhancement by tetraphenylborate and phloretin ([4]; phloretin 10^-4 M and 10^-5 M with 10^-5 M TPB, 30 minutes): no evidence of additive enhancement by tetraphenylborate and phloretin
net uptake of Tc-MIBI enhanced above control ([4]; phloretin 10^-4 M, within 30 minutes (FIG. 7)): five-fold

COC(=O)c1ccccc1-c1c2ccc(=N)cc-2oc2cc(N)ccc12 [rhodamine 123]
toxicity to cells and mitochondria (cells and mitochondria): shown to be toxic to cells and mitochondria
toxic effects on mitochondrial function (cells and mitochondria): toxic effects on mitochondrial function

[N-]=[N+]=[N-] [sodium azide]
net uptake of Tc-MIBI ([2]; sodium azide in combination with oligomycin): virtually eliminates net uptake of the agent

CC(C)[C@@H]1NC(=O)[C@H](C)OC(=O)[C@@H](C(C)C)NC(=O)[C@@H](C(C)C)OC(=O)[C@H](C(C)C)NC(=O)[C@H](C)OC(=O)[C@@H](C(C)C)NC(=O)[C@@H](C(C)C)OC(=O)[C@H](C(C)C)NC(=O)[C@H](C)OC(=O)[C@@H](C(C)C)NC(=O)[C@@H](C(C)C)OC1=O [valinomycin, reference compound]
net accumulation of Tc-MIBI [5]: eliminated net accumulation of Tc-MIBI

Reference: patent US5277897A, “In vivo enhancement of cellular accumulation of lipophilic cationic organometallic compounds by reduction of intramembrane potential” (Brigham and Women's Hospital, priority 1992, dated 1994)
